Laboratory results reported in ChEMBL document CHEMBL2375250, “Efficient synthesis of new (R)-2-amino-1-butanol derived ureas, thioureas and acylthioureas and in vitro evaluation of their antimycobacterial activity” (Eur J Med Chem, 2013).
In brackets after ≈: the same amount, converted by molar mass.

Assays:
[1] = test system: Mycobacterium tuberculosis; assay: Antimycobacterial activity against multidrug-resistant Mycobacterium tuberculosis 43 assessed as growth inhibition after 45 days by Lowenstein-Jensen method; format: functional
[2] = test system: Mycobacterium tuberculosis; assay: Antimycobacterial activity against multidrug-resistant Mycobacterium tuberculosis 43 assessed as bacterial growth at 5 uM after 45 days by Lowenstein-Jensen method; format: functional

Compound	MIC [1] [µM]	Activity [2] [%]
CC[C@H](CO)NC(=S)NC(=O)c1ccccc1O	7.46 (≈ 2 µg/mL)	–
CC[C@H](CO)NC(=S)NC(=O)c1ccc(N(C)C)cc1	> 16.9	100
CC[C@H](CO)NC(=S)NC(=O)/C=C/c1ccccc1	> 18	100
CC[C@H](CO)NC(=S)NC(=O)CCc1ccccc1	> 17.8	100
